Data on eight molecules can be found in patent publication US9944643B2, “Factor XIa inhibitors” (MERCK SHARP & DOHME CORP., priority 2014, dated 2018).

Sequence of purified human Factor XIa (P03951 whole entry, looked up): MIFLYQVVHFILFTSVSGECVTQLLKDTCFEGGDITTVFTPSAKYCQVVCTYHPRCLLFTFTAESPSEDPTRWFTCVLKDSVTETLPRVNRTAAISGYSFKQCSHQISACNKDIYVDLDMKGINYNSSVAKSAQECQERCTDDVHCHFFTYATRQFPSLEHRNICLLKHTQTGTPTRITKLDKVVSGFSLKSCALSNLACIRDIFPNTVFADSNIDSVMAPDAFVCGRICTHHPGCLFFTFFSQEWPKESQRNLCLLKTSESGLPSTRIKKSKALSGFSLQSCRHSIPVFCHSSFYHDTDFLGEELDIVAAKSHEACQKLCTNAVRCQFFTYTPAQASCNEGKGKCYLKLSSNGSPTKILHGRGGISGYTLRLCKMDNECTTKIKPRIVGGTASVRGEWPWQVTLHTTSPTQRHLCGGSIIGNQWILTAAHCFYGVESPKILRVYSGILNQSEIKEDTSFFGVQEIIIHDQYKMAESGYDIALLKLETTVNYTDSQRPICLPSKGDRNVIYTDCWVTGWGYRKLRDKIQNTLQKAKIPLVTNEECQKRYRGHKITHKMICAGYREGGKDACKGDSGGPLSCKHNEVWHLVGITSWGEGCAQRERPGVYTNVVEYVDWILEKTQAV
Sequence of purified human Factor XIa (P03951 whole entry partner, looked up): as the sequence (P03951 whole entry, looked up) above

The assay has as its target purified human Factor XIa (Homo sapiens (Human), UniProt P03951). Nature of the assay: Factor XIa Assay. Format: biochemical. As to the method:
The effectiveness a of compound of the present invention as an inhibitor of Coagulation Factor XIa can be determined using a relevant purified serine protease, and an appropriate synthetic substrate. The rate of hydrolysis of the chromogenic or fluorogenic substrate by the relevant serine protease was measured both in the absence and presence of compounds of the present invention. Assays were conducted at room temperature or at 37° C. […] A decrease in the rate of fluorescence change in the presence of inhibitor is indicative of enzyme inhibition. Such methods are known to one skilled in the art. The results of this assay are expressed as the inhibitory constant, Ki.
Factor XIa determinations were made in 50 mM HEPES buffer at pH 7.4 containing 150 mM NaCl, 5 mM CaCl2, and 0.1% PEG 8000 (polyethylene glycol; J T Baker or Fisher Scientific). Determinations were made using purified human Factor XIa at a final concentration of 40 pM (Sekisui Diagnostics) and the synthetic substrate, Z-Gly-Pro-Arg-AFC, TFA salt (Sigma #C0980) at a concentration of 100 μM.
Activity assays were performed by diluting a stock solution of substrate at least tenfold to a final concentration ≤0.1 Km into a solution containing enzyme or enzyme equilibrated with inhibitor. Times required to achieve equilibration between enzyme and inhibitor were determined in control experiments. Initial velocities of product formation in the absence (Vo) or presence of inhibitor (Vi) were measured. Assuming competitive inhibition, and that unity is negligible compared Km/[S], [I]/e, and [I]/e (where [S], [I], and e respectively represent the total concentrations, of substrate, inhibitor and enzyme), the equilibrium constant (Ki) for dissociation of the inhibitor from the enzyme can be obtained from the dependence of Vo/Vi on [I] shown in the following equation. Vo/Vi=1+[I]/Ki
As a reminder, the Ki is the dissociation constant of the complex between target and ligand, obtained from inhibition or displacement. A higher Ki goes with lower affinity. On to `COC(=O)Nc1ccc2c(c1)N[C@@H](C(=O)O)CCCC[C@H](NC(=O)c1ccc(CN)c(C3CC3)c1)c1nc-2c[nH]1` [Example 3], for which affinity was put at a Ki of 0.1 nM. With `COC(=O)Nc1ccc2c(c1)NC(=O)CCCC[C@H](NC(=O)c1cnc(CN)c(C3CC3)c1)c1nc-2c[nH]1` [Example 2] the figure was 1.1 nM; with `C[C@H]1CCC[C@H](NC(=O)c2ccc(CN)c(C3CC3)c2)c2cc(ccn2)-c2ccc(NC(=O)OC3CCCC3)cc2NC1=O` [Example 7], 0.3 nM. In the case of `COC(=O)Nc1ccc2c(c1)NC(=O)CCCC[C@H](NC(=O)c1ccc(CN)c(C3CC3)c1)c1nc-2c(Cl)[nH]1` [Example 5] it was 0.05 nM.

`CC(C)COC(=O)Nc1ccc2c(c1)NC(=O)[C@@H](C)CCC[C@H](NC(=O)c1ccc(CN)c(C3CC3)c1)c1cc-2ccn1` [Example 6] yielded a Ki of 0.2 nM. With `COCCOC(=O)Nc1ccc2c(c1)NC(=O)[C@@H](C)CCC[C@H](NC(=O)c1ccc(CN)c(C3CC3)c1)c1cc-2ccn1` [Example 8] the figure was 0.1 nM; with `COC(=O)Nc1ccc2c(c1)NC(=O)[C@@H](C)CCC[C@H](NC(=O)c1ccc(CN)c(C3CC3)c1)c1cc-2ccn1` [Example 4], 0.03 nM.

In the case of `COC(=O)Nc1ccc2c(c1)NC(=O)CCCC[C@H](NC(=O)c1ccc(CN)c(C3CC3)c1)c1nc-2c[nH]1` [Example 1, Methyl [(7S)-7-({[4-(aminomethyl)-3-cyclopropylphenyl]carbonyl}amino)-2-oxo-1,2,3,4,5,6,7,9-octahydro-11,8-(azeno)-1,9-benzodiazacyclotridecin-14-yl]carbamate], the Ki is 0.1 nM.
